Assay results as given in PMC10901349, “Enzymatic properties of UDP-glycosyltransferase 89B1 from radish and modulation of enzyme catalytic activity via loop region mutation” (PLOS ONE, 2024).
Where two headings read alike, the source gives them in different places.

Biological target: T1, Rs89B1 (Raphanus sativus, UniProt A0A6J0K544)
T1 construct: gene LOC108814497; full-length CDS, C-terminal 6xHis tag (kept), expressed in Schizosaccharomyces pombe TN4, HisTrap purified; start MTVNEENT (from primer)
Experiment: HPLC glucosyltransferase assay, initial rates, curve fitting
Type: biochemical
Conditions: co-substrate UDP-glucose (5.0 mM in basic mix), sodium phosphate pH 7.0, 30°C
Excerpt: HPLC glucosyltransferase assay, initial rates, curve fitting on Rs89B1

T1 sequence (A0A6J0K544 entry or part of it): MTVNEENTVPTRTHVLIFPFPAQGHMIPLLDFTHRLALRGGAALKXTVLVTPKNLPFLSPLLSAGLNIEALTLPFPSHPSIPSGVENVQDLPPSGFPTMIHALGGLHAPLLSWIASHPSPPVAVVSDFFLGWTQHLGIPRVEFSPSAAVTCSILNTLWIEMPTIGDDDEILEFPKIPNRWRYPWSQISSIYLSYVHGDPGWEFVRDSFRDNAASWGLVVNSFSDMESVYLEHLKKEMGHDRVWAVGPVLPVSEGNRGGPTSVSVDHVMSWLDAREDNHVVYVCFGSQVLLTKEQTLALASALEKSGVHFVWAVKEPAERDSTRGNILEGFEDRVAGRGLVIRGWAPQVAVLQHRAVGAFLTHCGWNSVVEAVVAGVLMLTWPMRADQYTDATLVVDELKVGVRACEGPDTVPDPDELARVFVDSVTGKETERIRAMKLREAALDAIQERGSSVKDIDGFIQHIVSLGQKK

Row | Structure (SMILES) | Km | Km (read-out: Rs89B1_ins / Km)
1 | O=C(O)c1ccc(O)c(O)c1O [2,3,4-THBA, 2,3,4-trihydroxy benzoic acid] | 138 ± 2 µM | 128 ± 4.5 µM
2 | O=C(O)c1cc(O)ccc1O [2,5-DHBA] | 773.8 ± 1.6 µM | 663.2 ± 2.3 µM
3 | O=C(O)c1ccc(O)cc1 [4-HBA] | 233 ± 12.2 µM | 251 ± 15.4 µM

Next, values leading:

Row | Km | Km (read-out: Rs89B1_ins / Km) | Structure (SMILES)
4 | 198 ± 7.2 µM | 688 ± 14.6 µM | O=C(O)c1c(O)cc(O)cc1O [2,4,6-THBA]
5 | 182 ± 4.2 µM | 212 ± 5.8 µM | O=C(O)c1ccc(O)cc1O [2,4-DHBA]
